How the values were obtained:
[1] = system: ALK phosphorylation in NCI-H2228 and Karpas-299 cell lines; experiment: Immunoblot of ALK phosphorylation and downstream signaling; type: cell-based; details: 2 h, dose-dependent
[2] = system: patients without treatment with other ALK inhibitors; details: phase I study, 24 patients, cited from earlier work

| SMILES | autophosphorylation of ALK; phosphorylation of AKT and STAT3 (immunoblot) [1] | ORR, ALK+ patients ([2]; ALK+) [%] | ORR, NRTK1–3+ patients ([2]; NRTK1–3+) [%] | ORR, ROS1+ patients ([2]; ROS1+) [%] |
| --- | --- | --- | --- | --- |
| Cc1cc(Nc2ncc(Cl)c(Nc3ccccc3S(=O)(=O)C(C)C)n2)c(OC(C)C)cc1C1CCNCC1 [Ceritinib] | can inhibit autophosphorylation of ALK |  |  |  |
| CN1CCN(c2ccc(C(=O)Nc3n[nH]c4ccc(Cc5cc(F)cc(F)c5)cc34)c(NC3CCOCC3)c2)CC1 [entrectinib] |  | 57 | 100 | 85 |
